This note sets out measurements from US20260265238A1, “COMPOUNDS AND PHARMACEUTICAL COMPOSITIONS THAT DEGRADE SWI/SNF-RELATED MATRIX-ASSOCIATED ACTIN-DEPENDENT REGULATOR OF CHROMATIN SUBFAMILY A” (Plexium, Inc., priority 2023, published 2026).

Assay [1] addresses T1, SMARCA4-HiBiT HeLa cells (protein which is expressed from the SMARCA4 gene) (Homo sapiens, UniProt P51532).
T1 construct: protein which is expressed from the SMARCA2 and SMARCA4 genes; host or cells: HeLa (SMARCA4-HiBiT engineered line)
The assay is described as follows: SMARCA4 degradation assay (HiBiT-fusion HeLa cell line, 24 h, luminescence). Format: cell-based. In short, it runs like this: (§1)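 HiBiT-fusion HeLa lines, 8,000 cells/well, overnight attachment; cpd 10-pt series (typically 10 μM–300 pM), 24 h, 37° C. Lysis with LgBiT + HiBiT substrate, 10 min shaking at RT, luminescence read. DC50 from dose-response fit; % degradation also scored at 1 μM.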
(The HiBiT peptide binds its large partner to form an active luciferase.)

The target in assay [2] is T2, SMARCA2-HiBiT HeLa cells (protein which is expressed from the SMARCA2 gene) (Homo sapiens, UniProt P51531).
T2 construct: protein which is expressed from the SMARCA2 and SMARCA4 genes; host or cells: HeLa (SMARCA2-HiBiT engineered line)
T2 sequence (P51531 whole entry): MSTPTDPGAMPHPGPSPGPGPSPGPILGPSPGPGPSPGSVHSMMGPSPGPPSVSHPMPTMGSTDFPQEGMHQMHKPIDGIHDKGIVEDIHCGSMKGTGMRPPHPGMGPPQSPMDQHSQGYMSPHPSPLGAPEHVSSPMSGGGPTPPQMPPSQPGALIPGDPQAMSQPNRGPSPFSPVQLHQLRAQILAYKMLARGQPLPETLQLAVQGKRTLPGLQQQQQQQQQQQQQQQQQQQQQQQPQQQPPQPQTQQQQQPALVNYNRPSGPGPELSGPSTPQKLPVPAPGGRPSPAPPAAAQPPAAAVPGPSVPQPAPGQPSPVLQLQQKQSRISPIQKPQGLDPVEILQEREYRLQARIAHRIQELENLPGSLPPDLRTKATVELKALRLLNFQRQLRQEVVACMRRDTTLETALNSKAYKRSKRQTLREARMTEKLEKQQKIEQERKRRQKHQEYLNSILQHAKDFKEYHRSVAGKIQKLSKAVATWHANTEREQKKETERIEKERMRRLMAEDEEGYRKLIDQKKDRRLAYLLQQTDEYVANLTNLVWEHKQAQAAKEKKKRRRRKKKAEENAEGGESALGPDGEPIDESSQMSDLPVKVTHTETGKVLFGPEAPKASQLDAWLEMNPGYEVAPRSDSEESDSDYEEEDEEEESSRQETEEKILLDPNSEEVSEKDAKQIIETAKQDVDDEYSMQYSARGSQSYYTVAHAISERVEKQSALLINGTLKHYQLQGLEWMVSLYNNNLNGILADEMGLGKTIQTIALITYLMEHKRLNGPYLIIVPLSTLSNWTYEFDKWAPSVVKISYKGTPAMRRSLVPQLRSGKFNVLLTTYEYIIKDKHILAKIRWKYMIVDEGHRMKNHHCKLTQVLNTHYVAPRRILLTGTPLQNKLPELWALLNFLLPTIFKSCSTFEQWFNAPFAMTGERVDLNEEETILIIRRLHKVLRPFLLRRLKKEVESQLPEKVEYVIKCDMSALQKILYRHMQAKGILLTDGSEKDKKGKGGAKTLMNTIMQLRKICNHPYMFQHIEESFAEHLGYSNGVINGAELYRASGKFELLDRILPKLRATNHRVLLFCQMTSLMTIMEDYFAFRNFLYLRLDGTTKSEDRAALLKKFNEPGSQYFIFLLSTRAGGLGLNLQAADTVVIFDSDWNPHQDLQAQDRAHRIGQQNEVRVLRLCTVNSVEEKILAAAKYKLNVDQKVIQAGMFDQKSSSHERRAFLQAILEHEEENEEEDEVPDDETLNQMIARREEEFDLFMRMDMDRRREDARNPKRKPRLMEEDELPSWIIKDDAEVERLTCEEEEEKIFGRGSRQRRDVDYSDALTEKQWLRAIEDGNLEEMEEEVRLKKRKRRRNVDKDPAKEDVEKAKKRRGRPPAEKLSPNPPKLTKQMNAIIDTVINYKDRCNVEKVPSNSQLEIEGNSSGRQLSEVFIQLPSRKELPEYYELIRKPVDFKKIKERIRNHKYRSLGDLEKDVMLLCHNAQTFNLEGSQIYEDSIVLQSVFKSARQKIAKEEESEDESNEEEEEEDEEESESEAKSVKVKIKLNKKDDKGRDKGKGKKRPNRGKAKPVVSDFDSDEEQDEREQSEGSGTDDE
The assay is described as follows: SMARCA2 degradation assay (HiBiT-fusion HeLa cell line, 24 h, luminescence). It counts as cell-based. In short, it runs like this:
as §1

T1 sequence (P51532 whole entry): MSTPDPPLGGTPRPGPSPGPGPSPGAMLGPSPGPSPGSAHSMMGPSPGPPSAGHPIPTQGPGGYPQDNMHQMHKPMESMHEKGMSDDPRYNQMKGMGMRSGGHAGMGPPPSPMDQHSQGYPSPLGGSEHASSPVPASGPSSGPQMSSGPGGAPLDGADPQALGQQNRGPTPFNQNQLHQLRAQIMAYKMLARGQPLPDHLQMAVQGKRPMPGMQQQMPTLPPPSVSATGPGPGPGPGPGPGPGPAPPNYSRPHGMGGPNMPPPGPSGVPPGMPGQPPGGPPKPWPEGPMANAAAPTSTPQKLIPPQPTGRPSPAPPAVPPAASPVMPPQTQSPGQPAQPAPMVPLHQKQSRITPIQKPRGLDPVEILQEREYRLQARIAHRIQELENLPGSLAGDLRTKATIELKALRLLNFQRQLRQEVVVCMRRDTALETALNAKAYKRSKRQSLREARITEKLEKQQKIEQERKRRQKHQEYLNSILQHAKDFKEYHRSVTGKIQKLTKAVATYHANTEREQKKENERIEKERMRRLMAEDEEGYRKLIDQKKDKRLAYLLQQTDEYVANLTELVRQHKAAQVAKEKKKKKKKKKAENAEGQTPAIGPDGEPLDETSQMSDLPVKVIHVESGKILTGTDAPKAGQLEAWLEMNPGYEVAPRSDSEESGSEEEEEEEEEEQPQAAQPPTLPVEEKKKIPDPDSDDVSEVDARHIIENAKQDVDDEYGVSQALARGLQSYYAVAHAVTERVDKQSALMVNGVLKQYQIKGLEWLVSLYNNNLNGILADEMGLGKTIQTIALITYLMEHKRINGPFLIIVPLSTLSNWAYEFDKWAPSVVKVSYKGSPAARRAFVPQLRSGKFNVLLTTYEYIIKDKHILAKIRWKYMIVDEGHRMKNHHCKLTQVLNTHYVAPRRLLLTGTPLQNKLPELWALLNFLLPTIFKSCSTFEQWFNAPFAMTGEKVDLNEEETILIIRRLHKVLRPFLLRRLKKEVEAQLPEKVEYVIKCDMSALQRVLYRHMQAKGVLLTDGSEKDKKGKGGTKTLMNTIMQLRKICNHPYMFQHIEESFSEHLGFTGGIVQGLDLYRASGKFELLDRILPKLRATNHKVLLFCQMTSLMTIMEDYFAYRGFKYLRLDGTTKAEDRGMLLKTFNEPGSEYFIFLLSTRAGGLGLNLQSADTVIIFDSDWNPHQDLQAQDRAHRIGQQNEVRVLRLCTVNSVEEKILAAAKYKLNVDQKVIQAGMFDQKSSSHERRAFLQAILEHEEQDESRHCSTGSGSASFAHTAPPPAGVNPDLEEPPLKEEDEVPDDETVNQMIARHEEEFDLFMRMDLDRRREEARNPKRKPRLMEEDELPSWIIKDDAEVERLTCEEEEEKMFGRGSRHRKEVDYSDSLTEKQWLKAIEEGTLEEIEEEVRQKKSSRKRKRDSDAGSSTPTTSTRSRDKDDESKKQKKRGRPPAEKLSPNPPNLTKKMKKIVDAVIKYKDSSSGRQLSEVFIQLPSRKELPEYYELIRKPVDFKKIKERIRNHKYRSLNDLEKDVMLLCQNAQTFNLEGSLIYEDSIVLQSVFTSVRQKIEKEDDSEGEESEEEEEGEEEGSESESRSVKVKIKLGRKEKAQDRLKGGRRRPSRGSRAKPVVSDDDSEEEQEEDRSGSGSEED

As a reminder, the DC50 is the concentration giving 50% degradation. A high value points to degradation only at high concentration. As a reminder, the inhibition is the share of the control response that was lost under treatment. Read a low inhibition as little suppression. On to `Nc1nnc(-c2ccccc2O)cc1N1CCN(c2ccnc(C#CCNC(=O)C3COc4ccccc4O3)n2)CC1` (centres unmarked) [Compound P-61, N-(3-(4-(4-(3-amino-6-(2-hydroxyphenyl)pyridazin-4-yl)piperazin-1-yl)pyrimidin-2-yl)prop-2-yn-1-yl)-2,3-dihydrobenzo[b][1,4]dioxine-2-carboxamide], for which the DC50 in assay [1] and in assay [2] was 50 to 500 nM throughout. The inhibition at 1 µM in assay [1] (@ 1 μM) was 30 to 70%. Also, in assay [2] (@ 1 μM), the “SMARCA2 % Degradation @ 1 μM” value is reported as “++ (++=30-70%)”.

For the molecule `Nc1nnc(-c2ccccc2O)cc1N1CCC2(CCCN(c3ccnc(C#CCNC(=O)c4cc5ncccn5n4)n3)C2)CC1` [Compound P-35, N-(3-(4-(9-(3-amino-6-(2-hydroxyphenyl)pyridazin-4-yl)-2,9-diazaspiro[5.5]undecan-2-yl)pyrimidin-2-yl)prop-2-yn-1-yl)pyrazolo[1,5-a]pyrimidine-2-carboxamide], the DC50 in assay [1] and in assay [2] was 50 to 500 nM in each case. Moreover, the inhibition at 1 µM in assay [1] (@ 1 μM) is over 70%. Also, the “SMARCA2 % Degradation @ 1 μM” value in assay [2] (@ 1 μM) is on record as “++ (++=30-70%)”.

For the molecule `C[C@@H]1CCN(c2cc(-c3ccccc3O)nnc2N)CCN1c1cc(C#CCN(C)C)ncc1F` [Compound P-419, 0-{5-[(R)-4-{2-[3-(dimethylamino)-1-propynyl]-5-fluoro-4-pyridy1}-5-methyl-1,4-diazepan-1-yl]-6-amino-3-pyridazinyl}phenol], the DC50 in assay [1] and in assay [2] was 50 to 500 nM each time. The molecule further had an inhibition at 1 µM in assay [1] (1 μM) of under 30%. Further, the “SMARCA2 % Degradation @ 1 μM” value in assay [2] (1 μM) was “+ (+=<30%)”.

As for `C[C@@H]1CCN(c2cc(-c3ccccc3O)nnc2N)CCN1c1ccnc(C#CCN2[C@H](C)COC[C@@H]2C)c1` [Compound P-422, 0-{5-[(R)-4-(2-{3-[(3R,5S)-3,5-dimethyl-4-morpholiny1]-1-propynyl}-4-pyridyl)-5-methyl-1,4-diazepan-1-yl]-6-amino-3-pyridazinyl}phenol], the figures for the half-maximal degradation concentration (DC50) in assay [1] and in assay [2] were under 50 nM and 50 to 500 nM, respectively. For the same molecule, the “SMARCA2 % Degradation @ 1 μM” value in assay [2] (1 μM) is “+ (+=<30%)”.

`CN(CC#Cc1nccc(N2CCCN(c3cc(-c4ccccc4O)nnc3N)CC2)n1)C(=O)c1cc2ncccn2n1` [Compound P-24, N-(3-(4-(4-(3-amino-6-(2-hydroxyphenyl)pyridazin-4-yl)-1,4-diazepan-1-yl)pyrimidin-2-yl)prop-2-yn-1-yl)-N-methylpyrazolo[1,5-a]pyrimidine-2-carboxamide]: the DC50 in assay [1] and in assay [2] was under 50 nM in each case. The molecule also yielded an inhibition at 1 µM in assay [1] (@ 1 μM) of over 70%. Also, in assay [2] (@ 1 μM), the “SMARCA2 % Degradation @ 1 μM” value is on record as “+++ (+++=>70%)”.

`CC1CN(c2cc(-c3ccccc3O)nnc2N)CCCN1c1ccnc(C#CCNC(=O)c2cc3ncccn3n2)n1` (centres unmarked) [Compound P-20, N-(3-(4-(4-(3-amino-6-(2-hydroxyphenyl)pyridazin-4-yl)-2-methyl-1,4-diazepan-1-yl)pyrimidin-2-yl)prop-2-yn-1-yl)pyrazolo[1,5-a]pyrimidine-2-carboxamide]: the DC50 in assay [1] and in assay [2] was 50 to 500 nM in each case. The inhibition at 1 µM in assay [1] (@ 1 μM) lay in the range of 30 to 70%. For the same molecule, the “SMARCA2 % Degradation @ 1 μM” value in assay [2] (@ 1 μM) was “++ (++=30-70%)”.

Take `C[C@@H]1CN(CC#Cc2nccc(N3CCCN(c4cc(-c5ccccc5O)nnc4N)CC3)n2)C[C@H](c2ccccc2)O1` [Compound P-380, 0-{5-[4-(2-{3-[(2R,6S)-2-methyl-6-phenyl-4-morpholinyl]-1-propynyl}-4-pyrimidinyl)-1,4-diazepan-1-yl]-6-amino-3-pyridazinyl}phenol]: the DC50 in assay [1] and in assay [2] was 500 to 5000 nM each time. Also, the inhibition at 1 µM in assay [1] (1 μM) was under 30%. The “SMARCA2 % Degradation @ 1 μM” value in assay [2] (1 μM) is on record as “++ (++=30-70%)”.

For the molecule `C[C@@H]1CCN(c2cc(-c3ccccc3O)nnc2N)CCN1c1ccnc(C#CCNC(=O)c2cc3ncccn3n2)n1` [Compound P-14, (R)-N-(3-(4-(4-(3-amino-6-(2-hydroxyphenyl)pyridazin-4-yl)-7-methyl-1,4-diazepan-1-yl)pyrimidin-2-yl)prop-2-yn-1-yl)pyrazolo[1,5-a]pyrimidine-2-carboxamide], the DC50 in assay [1] and in assay [2] was 50 to 500 nM throughout. The same molecule showed an inhibition at 1 µM in assay [1] (@ 1 μM) of 30 to 70%. Also, in assay [2] (@ 1 μM), the “SMARCA2 % Degradation @ 1 μM” value was “+++ (+++=>70%)”.

For the molecule `C[C@@H]1CCN(c2cc(-c3ccccc3O)nnc2N)CCN1c1cc(C#CCN2CCCCC2)ncc1F` [Compound P-414, 0-(5-{(R)-4-[5-fluoro-2-(3-piperidino-1-propynyl)-4-pyridyl]-5-methyl-1,4-diazepan-1-yl}-6-amino-3-pyridazinyl)phenol], the DC50 in assay [1] and in assay [2] was 50 to 500 nM each time. The molecule also returned an inhibition at 1 µM in assay [1] (1 μM) of 30 to 70%. Also, the “SMARCA2 % Degradation @ 1 μM” value in assay [2] (1 μM) is “+ (+=<30%)”.

For the molecule `Nc1nnc(-c2ccccc2O)cc1N1CCN(c2ccnc(C#CCNC(=O)c3cc4n(n3)CCCO4)n2)CC1` [Compound P-57, N-(3-(4-(4-(3-amino-6-(2-hydroxyphenyl)pyridazin-4-yl)piperazin-1-y1)pyrimidin-2-yl)prop-2-yn-1-yl)-6,7-dihydro-5H-pyrazolo[5,1-b][1,3]oxazine-2-carboxamide], the figures for the DC50 in assay [1] and in assay [2] were under 50 nM and 50 to 500 nM, respectively. Besides, the inhibition at 1 µM in assay [1] (@ 1 μM) fell in the range of 30 to 70%. In assay [2] (@ 1 μM), the “SMARCA2 % Degradation @ 1 μM” value was “++ (++=30-70%)”.

As to `Nc1nnc(-c2ccccc2O)cc1N1CC2CCC(C1)N2c1ccnc(C#CCNc2nc3ccccc3o2)n1` [Compound P-100, 2-(6-amino-5-(8-(2-(3-(benzo[d]doxazol-2-ylamino)prop-1-yn-1-yl)pyrimidin-4-yl)-3,8-diazabicyclo[3.2.1]octan-3-yl)pyridazin-3-yl)phenol], the DC50 in assay [1] and in assay [2] was 50 to 500 nM in each case. In assay [1] (@ 1 μM), this molecule showed an inhibition at 1 µM of 30 to 70%. Also, the “SMARCA2 % Degradation @ 1 μM” value in assay [2] (@ 1 μM) is recorded as “+++ (+++=>70%)”.

In the case of `Nc1nnc(-c2ccccc2O)cc1N1CCCN(c2ccnc(C#CCN3CCCC(O)C3)n2)CC1` (centres unmarked) [Compound P-361, 1-[3-(4-{4-[3-amino-6-(o-hydroxyphenyl)-4-pyridazinyl]-1,4-diazepan-1-yl}-2-pyrimidinyl)-2-propynyl]-3-piperidinol], the DC50 in assay [1] and in assay [2] was 500 to 5000 nM in each case. Further, the inhibition at 1 µM in assay [1] (@ 1 μM) was under 30%. The “SMARCA2 % Degradation @ 1 μM” value in assay [2] (@ 1 μM) is “++ (++=30-70%)”.

With `Cc1nccn1CC#Cc1nccc(N2CCN(c3cc(-c4ccccc4O)nnc3N)CC[C@H]2C)n1` [Compound P-186, o-{5-[(R)-5-methyl-4-{2-[3-(2-methyl-1-imidazolyl)-1-propynyl]-4-pyrimidinyl}-1,4-diazepan-1-yl]-6-amino-3-pyridazinyl}phenol], the DC50 in assay [1] and in assay [2] was 50 to 500 nM in each case. Besides, the inhibition at 1 µM in assay [1] (@ 1 μM) lay in the range of 30 to 70%. Also, in assay [2] (@ 1 μM), the “SMARCA2 % Degradation @ 1 μM” value is reported as “+++ (+++=>70%)”.

For `CC1CN(c2ccnc(C#CCN)n2)CCCN1c1cc(-c2ccccc2O)nnc1N` (centres unmarked) [Compound P-40, 2-(6-amino-5-(4-(2-(3-aminoprop-1-yn-1-yl)pyrimidin-4-yl)-2-methyl-1,4-diazepan-1-yl)pyridazin-3-yl)phenol], the DC50 in assay [1] and in assay [2] was 500 to 5000 nM throughout. Moreover, the inhibition at 1 µM in assay [1] (@ 1 μM) is under 30%. For the same molecule, the “SMARCA2 % Degradation @ 1 μM” value in assay [2] (@ 1 μM) is “+ (+=<30%)”.

For `CC1CCC(C)N1CC#Cc1nccc(N2CCN(c3cc(-c4ccccc4O)nnc3N)CC[C@H]2C)n1` (stereo partly drawn) [Compound P-246, o-{5-[(R)-4-{2-[3-(2,5-dimethyl-1-pyrrolidinyl)-1-propynyl]-4-pyrimidinyl}-5-methyl-1,4-diazepan-1-yl]-6-amino-3-pyridazinyl}phenol], the DC50 in assay [1] and in assay [2] was under 50 nM each time. The same molecule had an inhibition at 1 µM in assay [1] (@ 1 μM) of 30 to 70%. Further, in assay [2] (@ 1 μM), the “SMARCA2 % Degradation @ 1 μM” value was “++ (++=30-70%)”.

For `C[C@@H]1CCN(c2cc(-c3ccccc3O)nnc2N)CCN1c1ccnc(/C=C/CN2CCC2)n1` [Compound P-166, o-{5-[(R)-4-{2-[3-(1-azetidinyl)-1-propenyl]-4-pyrimidinyl}-5-methyl-1,4-diazepan-1-yl]-6-amino-3-pyridazinyl}phenol], the DC50 in assay [1] and in assay [2] was 50 to 500 nM in each case. In assay [1] (@ 1 μM), the inhibition at 1 µM was over 70%. Further, the “SMARCA2 % Degradation @ 1 μM” value in assay [2] (@ 1 μM) was “+++ (+++=>70%)”.

Turning to `CC(=O)NCC#Cc1nccc(N2CCN(c3cc(-c4ccccc4O)nnc3N)CC2)n1` [Compound P-68, N-(3-(4-(4-(3-amino-6-(2-hydroxyphenyl)pyridazin-4-yl)piperazin-1-yl)pyrimidin-2-yl)prop-2-yn-1-yl)acetamide], the DC50 in assay [1] is over 5000 nM; in assay [2], 50 to 500 nM. The “SMARCA2 % Degradation @ 1 μM” value in assay [2] (@ 1 μM) is recorded as “+ (+=<30%)”.

Turning to `Nc1nnc(-c2ccccc2O)cc1N1CC2CCC(C1)N2c1ccnc(C#CC2(NC(=O)c3cc4ncccn4n3)CC2)n1` [Compound P-98, N-(1-((4-(3-(3-amino-6-(2-hydroxyphenyl)pyridazin-4-yl)-3,8-diazabicyclo[3.2.1]octan-8-yl)pyrimidin-2-yl)ethynyl)cyclopropyl)pyrazolo[1,5-a]pyrimidine-2-carboxamide], the DC50 in assay [1] and in assay [2] was 50 to 500 nM in each case. Besides, the inhibition at 1 µM in assay [1] (@ 1 μM) fell in the range of 30 to 70%. The “SMARCA2 % Degradation @ 1 μM” value in assay [2] (@ 1 μM) was “++ (++=30-70%)”.

For `CO[C@@H]1CCN(CC#Cc2nccc(N3CCN(c4cc(-c5ccccc5O)nnc4N)CC[C@H]3C)n2)C1` [Compound P-242, o-{5-[(R)-4-(2-{3-[(R)-3-methoxy-1-pyrrolidinyl]-1-propynyl}-4-pyrimidinyl)-5-methyl-1,4-diazepan-1-yl]-6-amino-3-pyridazinyl} phenol], the DC50 in assay [1] and in assay [2] was under 50 nM each time. The inhibition at 1 µM in assay [1] (@ 1 μM) lay within 30 to 70%. Moreover, the “SMARCA2 % Degradation @ 1 μM” value in assay [2] (@ 1 μM) is “++ (++=30-70%)”.
